Values quoted from earlier work as cited in US10976308B2, “Plant-derived nanofibrillar cellulose hydrogel for cell culture and chemical testing” (UPM-KYMMENE CORPORATION, priority 2014, dated 2021).

What was measured:
[1] = tested on: 3D liver models; conditions: by Khetani et al. 2013
[2] = by Khetani et al. 2013

CN(C)CCCN1c2ccccc2CCc2ccccc21 [imipramine]
Toxicity in 3D liver models [1]: toxicity is not detected in all 3D models tested

O=C(O)Cc1ccccc1Nc1c(Cl)cccc1Cl [diclofenac]
Cmax [2]: 8 µM

CC(C)NCC(O)COc1cccc2ccccc12 (stereo not shown) [propranolol]
Toxicity in 3D liver models [1]: not detected in the 3D liver models | Cmax [2]: 0.2 µM
